Laboratory results reported in patent EP2876156A1 (COMMISSARIAT A L'ENERGIE ATOMIQUE ET AUX ENERGIES …, priority 2013, dated 2015).

Tests used:
[1] = test system: Decarboxyl (or Decarboxy2); experiment: Enzymatic hydroxylation followed by decarboxylation to hydroxylated diamino alkanes, conversion by HPLC (protocol A); format: biochemical, Flavobacterium johnsoniae; Chitinophaga pinensis; conditions: L-lysine or L-ornithine hydroxylated (part V conditions), then PLP, DTT and Decarboxy1 (or Decarboxy2) added, 18h at 37 °C; HPLC after Fmoc-Cl derivatization
Procedure: The conversions were determined by HPLC after Fmoc-Cl derivatization (protocol A). Atlantis T3 (3µm 4.5*150 mm) at 35°C with the gradient 50-86% eluent B (MeCN + 0.1% TFA) and eluent A (H2O + 0.1% TFA) in 20 min at 1 mL/min […].
L-lysine was converted into (3S)-3-hydroxy-L-lysine by ENZ1 in conditions described in part V.
30 µL pyridoxal 5'-phosphate (PLP) 10 mM, 3 µL dithiothreitol (DTT) 100 mM and Decarboxyl (or Decarboxy2) 50 µL 1.5 mg/mL were then added in the reaction medium. The mixture was stirred (1000 rpm) for 18h at 37 °C.
Lysine was converted into (4R)-4-hydroxy-L-lysine in conditions described in part V 30 µL PLP 10 mM, 3 µL DTT 100 mM and Decarboxyl(or Decarboxy2) 50 µL 1.5 mg/mL were then added in the reaction medium to perform decarboxylation. The mixture was stirred (1000 rpm) for 18h at 37 °C.
The mixture was stirred (1000 rpm) for 18h at 37 °C.
Lysine was converted into (3R,4R)-3,4-dihydroxy-L-lysine in conditions described in part V, by cascade reaction with ENZ1 (SEQ NO:1) and ENZ2 (SEQ NO:2).
The volume of the reaction medium was reduced to 180 µL using a speedvac. 26 µL PLP 10 mM, 2.6 µL DTT 100 mM and Decarboxyl (or Decarboxy2) 50 µL (lysat) were then added to perform decarboxylation. The mixture was stirred (1000 rpm) for 18h at 37 °C.

ENZ5 (SEQ ID NO:9) = biological target: T1, ENZ5 (SEQ ID NO:9) (Niastella koreensis, UniProt G8T8D0); experiment: Hydroxylation capability, HPLC analysis of reaction media after derivatization; format: biochemical
T1 construct: His6 (hexahistidine, inserted after the initial methionine) (N); made in house; host or cells: E. coli BL21(DE3) plysE
T1 sequence (G8T8D0 1-371): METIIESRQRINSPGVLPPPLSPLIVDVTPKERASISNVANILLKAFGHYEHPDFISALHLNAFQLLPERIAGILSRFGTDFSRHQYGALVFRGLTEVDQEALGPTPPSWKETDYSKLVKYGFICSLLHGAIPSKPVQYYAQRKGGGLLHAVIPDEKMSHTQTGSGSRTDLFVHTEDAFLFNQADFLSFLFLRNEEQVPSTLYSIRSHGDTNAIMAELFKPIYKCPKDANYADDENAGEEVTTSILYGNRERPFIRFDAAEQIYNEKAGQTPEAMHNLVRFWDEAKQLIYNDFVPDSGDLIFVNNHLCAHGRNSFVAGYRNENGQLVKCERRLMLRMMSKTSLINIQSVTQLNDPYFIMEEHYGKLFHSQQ
Procedure: (§1) Enzymes (0.08 mg/mL) were screened against substrates (molar ratio α-ketoglutarate/substrate 15/10) in Hepes buffer 50 mM pH 7,5, with Mohr's salt at 1mM and without sodium ascorbate, at room temperature for three hours. The potential conversions of the substrates were determined by HPLC after Fmoc-Cl derivatization as section III here above.
(§2) The hydroxylation capability of two other enzymes, namely ENZ6 (SEQ ID NO:10) and ENZ5 (SEQ ID NO:9) were also assessed. The amino sequence of ENZ6 has 79% of amino acid identity with SEQ ID NO:2 of ENZ2 while the amino sequence of ENZ5 has 72% of amino acid identity with SEQ ID NO:3 of ENZ3. […] As shown in part VI, ENZ6 and ENZ5 provide (4R)-hydroxy-L-lysine from L-lysine similarly to ENZ2 and ENZ3. Thus ENZ6 and ENZ5 are likely to have the same substrate selectivity and provide similar products as ENZ2 and ENZ3.

ENZ6 (SEQ ID NO:10) = biological target: T2, ENZ6 (SEQ ID NO:10) (Flavobacterium sp., UniProt J3BZS6); experiment: as above; format: biochemical
T2 construct: His6 (hexahistidine, inserted after the initial methionine) (N); made in house; host or cells: E. coli BL21(DE3) plysE
T2 sequence (J3BZS6 whole entry): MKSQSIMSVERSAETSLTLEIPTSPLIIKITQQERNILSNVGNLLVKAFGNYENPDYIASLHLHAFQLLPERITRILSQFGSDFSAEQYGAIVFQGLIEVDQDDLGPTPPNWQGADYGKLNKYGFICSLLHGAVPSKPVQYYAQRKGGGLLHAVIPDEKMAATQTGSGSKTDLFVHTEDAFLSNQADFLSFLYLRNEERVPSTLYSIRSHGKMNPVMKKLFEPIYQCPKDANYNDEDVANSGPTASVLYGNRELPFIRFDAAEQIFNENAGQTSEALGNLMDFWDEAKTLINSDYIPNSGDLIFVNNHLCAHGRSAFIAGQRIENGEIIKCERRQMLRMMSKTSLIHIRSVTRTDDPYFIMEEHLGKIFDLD
Procedure: as §1, §2

ENZ4 SEQ ID NO:4 [2] = biological target: T3, ENZ4 SEQ ID NO:4 (Catenulispora acidiphila, UniProt C7Q942); experiment: Enzymatic hydroxylation of L-ornithine and L-arginine, 10 mL scale, conversion by HPLC; format: biochemical; conditions: ENZ4 0.595 mg/mL, without sodium ascorbate, room temperature, 18h; HPLC after FDAA derivatization (protocol B)
T3 construct: His6 (hexahistidine, inserted after the initial methionine) (N); made in house; host or cells: E. coli BL21(DE3) plysE
T3 sequence (C7Q942 1-343): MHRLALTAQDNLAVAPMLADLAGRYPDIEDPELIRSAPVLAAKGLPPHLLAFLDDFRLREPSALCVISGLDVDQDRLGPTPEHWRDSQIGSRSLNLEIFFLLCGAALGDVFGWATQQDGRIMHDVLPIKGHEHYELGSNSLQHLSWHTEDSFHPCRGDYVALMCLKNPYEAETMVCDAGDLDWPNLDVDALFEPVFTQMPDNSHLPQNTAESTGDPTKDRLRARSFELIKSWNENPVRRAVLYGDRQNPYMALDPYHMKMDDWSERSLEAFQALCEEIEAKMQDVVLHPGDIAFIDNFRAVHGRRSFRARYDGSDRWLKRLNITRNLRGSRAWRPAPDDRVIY
Procedure: 70 µL of the aqueous phase were withdrawn, diluted with 70 µL of acetonitrile and injected into the HPLC. […]
(§3) Conditions for HPLC analysis: Atlantis® T3 (3 µm 4.5*150 mm) at 35°C with the gradient 50-86% eluent B (MeCN + 0.1% TFA) and eluent A (H2O + 0.1% TFA) in 20 min at 1 mL/min.

ENZ3 SEQ ID NO:3 = biological target: T4, ENZ3 SEQ ID NO:3 (Chitinophaga pinensis, UniProt C7PLM6); format: biochemical; conditions: enzyme 0.08 mg/mL, molar ratio α-ketoglutarate/substrate 15/10, Hepes buffer 50 mM pH 7,5, Mohr's salt 1mM, without sodium ascorbate, room temperature, three hours
T4 construct: His6 (hexahistidine, inserted after the initial methionine) (N); made in house; host or cells: E. coli BL21(DE3) plysE
T4 sequence (C7PLM6 1-382): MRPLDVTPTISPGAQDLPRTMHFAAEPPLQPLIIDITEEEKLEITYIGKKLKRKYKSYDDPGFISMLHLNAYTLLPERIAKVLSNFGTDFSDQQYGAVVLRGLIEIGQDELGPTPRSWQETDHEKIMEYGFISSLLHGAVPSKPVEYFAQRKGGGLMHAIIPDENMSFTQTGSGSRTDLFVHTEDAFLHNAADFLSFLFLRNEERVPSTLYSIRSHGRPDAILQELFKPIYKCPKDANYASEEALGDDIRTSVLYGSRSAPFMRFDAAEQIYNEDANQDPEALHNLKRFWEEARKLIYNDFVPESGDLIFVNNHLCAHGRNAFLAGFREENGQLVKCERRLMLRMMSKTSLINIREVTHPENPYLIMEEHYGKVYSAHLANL
Procedure: (§4) Enzymatic reaction medium (0.2 µmole, leq.), borate buffer 0,2M pH 7.7 (80 µL) and Fmoc-Cl solution7.5 mM in acetone (100 µL, 0.75 µmole, 3.75 eq) were hand shaked in a closed 1.50 mL eppendorf for one minute. The aqueous layer was extracted with petroleum ether (3*1 mL) to eliminate excess of Fmoc-Cl. 70 µL of the aqueous phase were withdrawn, diluted with 70 µL of acetonitrile and injected into the HPLC. For substrates with two amine functions, 100 µL of Fmoc-Cl solution 15 mM were used.
as §3, §1

ENZ2 SEQ ID NO:2 = biological target: T5, ENZ2 SEQ ID NO:2 (Flavobacterium johnsoniae, UniProt A5FF23); format: biochemical; conditions: enzyme 0.08 mg/mL, molar ratio α-ketoglutarate/substrate 15/10, Hepes buffer 50 mM pH 7,5, Mohr's salt 1mM, without sodium ascorbate, room temperature, three hours
T5 construct: His6 (hexahistidine, inserted after the initial methionine) (N); made in house; host or cells: E. coli BL21(DE3) plysE
T5 sequence (A5FF23 1-370): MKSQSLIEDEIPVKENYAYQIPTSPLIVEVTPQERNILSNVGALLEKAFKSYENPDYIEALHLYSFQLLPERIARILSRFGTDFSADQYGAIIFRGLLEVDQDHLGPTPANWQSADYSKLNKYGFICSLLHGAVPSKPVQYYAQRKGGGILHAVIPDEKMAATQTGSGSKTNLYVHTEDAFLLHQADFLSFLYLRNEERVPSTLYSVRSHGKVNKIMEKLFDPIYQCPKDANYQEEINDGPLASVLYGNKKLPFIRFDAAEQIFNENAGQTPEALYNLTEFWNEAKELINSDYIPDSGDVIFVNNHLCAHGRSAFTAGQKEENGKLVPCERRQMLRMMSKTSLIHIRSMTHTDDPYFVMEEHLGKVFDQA
Procedure: as §4, §3, §1

ENZ4 SEQ ID NO:4 [3] = biological target: T3, ENZ4 SEQ ID NO:4; experiment: Substrate selectivity screening of hydroxylase (conversion by HPLC after Fmoc-Cl derivatization); format: biochemical; conditions: enzyme 0.08 mg/mL, molar ratio α-ketoglutarate/substrate 15/10, Hepes buffer 50 mM pH 7,5, Mohr's salt 1mM, without sodium ascorbate, room temperature, three hours
Procedure: as §4, §3, §1

ENZ1 SEQ ID N°1 = biological target: T6, ENZ1 SEQ ID N°1 (Catenulispora acidiphila, UniProt C7QJ42); experiment: as above; format: biochemical; conditions: enzyme 0.08 mg/mL, molar ratio α-ketoglutarate/substrate 15/10, Hepes buffer 50 mM pH 7,5, Mohr's salt 1mM, without sodium ascorbate, room temperature, three hours
T6 construct: His6 (hexahistidine, inserted after the initial methionine) (N); made in house; host or cells: E. coli BL21(DE3) plysE
T6 sequence (C7QJ42 1-358): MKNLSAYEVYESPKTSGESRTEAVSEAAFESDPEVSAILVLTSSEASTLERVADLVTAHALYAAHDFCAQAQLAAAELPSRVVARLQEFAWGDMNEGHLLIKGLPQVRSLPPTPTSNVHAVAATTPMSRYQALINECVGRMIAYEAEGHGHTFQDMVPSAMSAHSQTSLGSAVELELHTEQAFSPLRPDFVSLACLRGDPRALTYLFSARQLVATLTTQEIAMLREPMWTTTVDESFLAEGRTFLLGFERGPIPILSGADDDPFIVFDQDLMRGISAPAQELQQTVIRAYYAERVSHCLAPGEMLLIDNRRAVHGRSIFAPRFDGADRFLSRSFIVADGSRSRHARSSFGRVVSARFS
Procedure: as §4, §3, §1

Compound	Conversion [1] [%]	potential conversions of the substrates, ENZ3 SEQ ID NO:3 (ENZ3 SEQ ID NO:3)	potential conversions of the substrates, ENZ2 SEQ ID NO:2 (ENZ2 SEQ ID NO:2)	potential conversions of the substrates, ENZ4 SEQ ID NO:4 (ENZ4 SEQ ID NO:4 [3])	potential conversions of the substrates, ENZ1 SEQ ID N°1 (ENZ1 SEQ ID N°1)	other results
NCC[C@H](O)CN [(2S)-1,4-diamino-2-butanol]	50	–	–	–	–	–
NCCC[C@H](N)C(=O)O [L-ornithine]	–	–	–	–	–	hydroxylation capability of ENZ5 (ENZ5 (SEQ ID NO:9)): not able to convert; hydroxylation capability of ENZ6 (ENZ6 (SEQ ID NO:10)): not able to convert
NCC[C@@H](O)[C@H](O)CN [(2R,3R)-1,5-diamino-2,3-pentanediol]	> 90	–	–	–	–	–
N=C(N)NCCC[C@H](N)C(=O)O [L-arginine]	–	negative	negative	positive	negative	conversion of L-arginine into hydroxylated product (ENZ4 SEQ ID NO:4 [2]): 50%
NCCC[C@H](O)CN [(2S)-1,5-diamino-2-pentanol]	> 95	–	–	–	–	–
NCCC(O)CCN [1,5-diamino-3-pentanol]	100	–	–	–	–	–
COC(=O)[C@@H](N)CCCNC(=N)N [L-arginine methyl ester]	–	negative	negative	negative	negative	–
CNCCCC[C@H](N)C(=O)O [Nε-Me-L-lysine]	–	negative	negative	negative	negative	–
